According to US11857578B2, “Extract and dermatological composition comprising same, for treating sensitive skin” (PIERRE FABRE DERMO-COSMETIQUE, priority 2018, dated 2024):

Key:
Assay type in all cases: cell-based
[1] = system: HBD2; experiment: RT-qPCR gene expression of innate immunity marker HBD2 in normal human epidermal keratinocytes; details: 1.5 mM, 48 h incubation, three donors
Description: (§1) The purpose of this study is to evaluate the effects of the bacterial extract according to the invention on the gene expression of normal human epidermal keratinocytes by an RT-PCR technique on two genes related to innate immunity.
(§2) The study is carried out on normal human epidermal keratinocytes from three donors. These cells are used at their third passage. These cells are cultured in a standard medium supplemented with epidermal growth factor (EGF), pituitary extract (PE) and gentamycin, using conventional laboratory procedures.
(§3) The bacterial extract according to the invention is tested at three concentrations: 0.4, 2 and 10 μg/ml (μg/ml protein).
(§4) At the same time, calcium chloride is tested at 1.5 mM as reference product.
(§5) The keratinocytes are seeded in 24-well plates (50,000 cells per well) and cultured for 24 hours in a culture medium. […]
(§6) The expression of markers is analyzed by the RT-qPCR method on total RNA extracted from the cells under each condition. […] The quantity and quality of RNA are evaluated by capillary electrophoresis. cDNA is synthesized by reverse transcription of total RNA in the presence of oligo(dT) and Transcriptor Reverse Transcriptase. […]
(§7) Fluorescence incorporation into amplified DNA is continuously measured during PCR cycles. […]
(§8) The parameter RQ (relative quantification) is defined as the relative expression/100. […]

[2] = system: S100A7; experiment: RT-qPCR gene expression of innate immunity marker S100A7 in normal human epidermal keratinocytes; details: 1.5 mM, 48 h incubation, three donors
Description: as §1, §2, §3, §4, §5, §6, §7, §8

[3] = system: TNF-α; experiment: TNF-α release by human epidermal keratinocytes activated by substance P (ELISA)
Description: (§9) The purpose of this study is to evaluate the modulatory properties of the bacterial extract according to the invention in skin inflammation. To that end, an in vitro experimental approach based on the measurement of production and release of tumor necrosis factor-alpha (TNF-α) and interleukin-1 beta (IL-1β) by human epidermal keratinocytes, activated by substance P, is proposed as an in vitro model of cutaneous neurogenic inflammation. The study is carried out on normal human epidermal keratinocytes; these cells are obtained from newborn foreskin. These cells are cultured in a serum-free medium using conventional laboratory procedures. The determination of markers of cutaneous neurogenic inflammation is carried out on these keratinocytes cultured in a medium in the absence (control condition) or in the presence of the compounds to be tested (bacterial extract according to the invention and reference product), and optionally exposed to substance P. The keratinocytes are treated 3 hours before the stress induced by substance P and during the following 24 hours. Levels of proinflammatory cytokines (TNF-α and IL-1β) are quantified 24 h after the induction of inflammatory stress by the addition of substance P (0.5 μM). […] TNF-α and IL-1β productions are measured in the incubation media and quantified by the enzyme-linked immunosorbent assay (ELISA).

[4] = system: IL-1β; experiment: IL-1β release by human epidermal keratinocytes activated by substance P (ELISA)
Description: as §9

[5] = 1 μM, keratinocytes treated 3 h before and 24 h during substance P (0.5 μM)

[Ca+2].[Cl-].[Cl-] [Calcium chloride, calcium chloride]
HBD2 gene expression, Mean (multiplicative factor, RQ vs control) [1]: 5.8 | HBD2 gene expression, Mean (multiplicative factor, RQ vs control) ([1]; listed as calcium chloride): strong expression | S100A7 gene expression, Mean (multiplicative factor, RQ vs control) [2]: 4.1 | S100A7 gene expression, Mean (multiplicative factor, RQ vs control) ([2]; listed as calcium chloride): strong expression

COc1ccccc1CN[C@H]1C2CCN(CC2)[C@H]1C(c1ccccc1)c1ccccc1 [NK-1R inh, CP96345]
TNF-α mean [3, 5]: 4.6 pg/mL | inhibition at 1 µM ([3]; Homo sapiens, Keratinocyte, versus Cont SP(+), substance P 0.5 μM, 24 h, read-out: TNF-α % Inh): 90% | IL-1β mean [4, 5]: 132.5 pg/mL | inhibition at 1 µM ([4]; Homo sapiens, Keratinocyte, versus Cont SP(+), substance P 0.5 μM, 24 h, read-out: IL-1β % Inh): 91%
